Km data for one molecule are collected here from publication PMC8034821 (The Journal of Venomous Animals and Toxins Including …, 2021).

What is called Km is the concentration of substrate that gives half-maximal velocity.

This assay has as its system krait (Bungarus sindanus) venom acetylcholinesterase (AChE). Put plainly: Ellman (DTNB) assay, Lineweaver-Burk plot. Format: biochemical. The settings on record: no inhibitor; 50 mM phosphate pH 7.4; 25 or 37 °C (both printed); crude venom.

For `CC(=O)SCC[N+](C)(C)C` [AcSCh], the Michaelis constant (Km) came to 74.1 µM.
